Results on eight compounds are retold here after US11034650B2, “Compounds useful for treating a Mannheimia haemolytica or Histophilus somni infection” (Intervet Inc., priority 2016, dated 2021).

Holding throughout (format): cell-based
For experiment [1], the system named is Mannheimia haemolytica MH 10720 (154, BRD field isolate). Kind of experiment: MIC, broth-microdilution (CLSI VET01-A4), strain MH 10720. As to conditions: Mannheimia haemolytica strain MH 10720, broth-microdilution; unit assumed. The essentials: (§1)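 Serial twofold dilutions; unaided-eye turbidity scoring; lowest clear well = MIC.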
On the technique in general: Dilution methods test growth across graded concentrations, often in twofold steps.

In experiment [2] the test system is Pasteurella multocida PM 10775 (080130003051, BRD field isolate). Kind of experiment: MIC, broth-microdilution (CLSI VET01-A4), strain PM 10775. Conditions: Pasteurella multocida strain PM 10775, broth-microdilution; unit assumed. The method, boiled down:
as §1

Experiment [3] has as its system Mannheimia haemolytica MH 13065 (XB0446-6003.9, BRD field isolate). Nature of the experiment: MIC, broth-microdilution (CLSI VET01-A4), strain MH 13065. As to conditions: Mannheimia haemolytica strain MH 13065, broth-microdilution; unit assumed. The essentials: as §1
The subject of experiment [4] is Pasteurella multocida PM 12080 (IV102277-0093, BRD field isolate). Nature of the experiment: MIC, broth-microdilution (CLSI VET01-A4), strain PM 12080. Conditions: Pasteurella multocida strain PM 12080, broth-microdilution; unit assumed. The essentials:
as §1

Experiment [5] has as its system Mannheimia haemolytica MH 6357 (M7/2, reference strain, cattle infection strain). Kind of experiment: MIC, broth-microdilution (CLSI VET01-A4), strain MH 6357. Conditions: Mannheimia haemolytica strain MH 6357, broth-microdilution; unit assumed. The method, boiled down:
as §1

In experiment [6] the test system is Mannheimia haemolytica MH 12587 (1071, BRD field isolate, macrolide-resistance: erm+, E+). Kind of experiment: MIC, broth-microdilution (CLSI VET01-A4), strain MH 12587. Conditions: Mannheimia haemolytica strain MH 12587, broth-microdilution; unit assumed. The essentials: as §1
For experiment [7], the system named is Mannheimia haemolytica MH 13093 (XB0472-6014.1, BRD field isolate). Nature of the experiment: MIC, broth-microdilution (CLSI VET01-A4), strain MH 13093. As to conditions: Mannheimia haemolytica strain MH 13093, broth-microdilution; unit assumed. The method, boiled down:
as §1

Experiment [8] has as its system Mannheimia haemolytica MH 6374 (ATCC 33396, reference strain). Nature of the experiment: MIC, broth-microdilution (CLSI VET01-A4), strain MH 6374. As to conditions: Mannheimia haemolytica strain MH 6374, broth-microdilution; unit assumed. The essentials:
as §1

The subject of experiment [9] is Pasteurella multocida PM 6267 (P 2225 (L386), reference strain, mouse infection strain). Nature of the experiment: MIC, broth-microdilution (CLSI VET01-A4), strain PM 6267. Conditions: Pasteurella multocida strain PM 6267, broth-microdilution; unit assumed. The method, boiled down: as §1
Experiment [10] deals with Pasteurella multocida PM 6391 (ATCC 43137, reference strain). Nature of the experiment: MIC, broth-microdilution (CLSI VET01-A4), strain PM 6391. As to conditions: Pasteurella multocida strain PM 6391, broth-microdilution; unit assumed. The method, boiled down:
as §1

In brackets after ≈: the same amount, converted by molar mass. A value given as a limit tells only on which side of the number the result lay.

In experiment [1], `CC(C)(O)[C@H](NC(=O)c1ccc(C#Cc2ccc(CNCc3ccco3)s2)cc1)C(=O)NO` [Compound 298] gave an MIC MH 10720 of at most 0.1 µg/mL. The MIC PM 10775 in [2] was at most 0.1 µg/mL. The same compound registered an MIC MH 13065 in experiment [3] of 0.2 µg/mL (≈ 0.428 µM). Besides, the MIC PM 12080 in experiment [4] is at most 0.1 µg/mL. Further, in [5], the MIC MH 6357 is at most 0.1 µg/mL. In experiment [6], this compound gave an MIC MH 12587 of 0.4 µg/mL (≈ 0.856 µM). For the same compound, the MIC MH 13093 in experiment [7] stood at 0.4 µg/mL (≈ 0.856 µM). In experiment [8], this compound yielded an MIC MH 6374 of 0.2 µg/mL (≈ 0.428 µM). Also, in experiment [9], the MIC PM 6267 was determined as 0.4 µg/mL (≈ 0.856 µM). For the same compound, the MIC PM 6391 in experiment [10] is at most 0.1 µg/mL.

`Cc1cnc(CNCc2ccc(C#Cc3ccc(C(=O)N[C@H](C(=O)NO)C(C)(C)O)cc3)s2)o1` [Compound 299]: the MIC MH 10720 in experiment [1] was at most 0.1 µg/mL. The MIC PM 10775 in experiment [2] was at most 0.1 µg/mL. In addition, in experiment [3], the MIC MH 13065 came to 0.4 µg/mL (≈ 0.829 µM). In experiment [4], this compound gave an MIC PM 12080 of 0.4 µg/mL (≈ 0.829 µM). In experiment [5], the MIC MH 6357 was 0.2 µg/mL (≈ 0.414 µM). The same compound registered an MIC MH 12587 in experiment [6] of 0.8 µg/mL (≈ 1.66 µM). Moreover, the MIC MH 13093 in experiment [7] was found to be 0.4 µg/mL (≈ 0.829 µM). For the same compound, in experiment [8], the MIC MH 6374 was found to be 0.4 µg/mL (≈ 0.829 µM). This compound also yielded an MIC PM 6267 in experiment [9] of 0.4 µg/mL (≈ 0.829 µM). In experiment [10], this compound displayed an MIC PM 6391 of at most 0.1 µg/mL.

For the compound `CSC(C)(C)[C@H](NC(=O)c1ccc(C#Cc2ccc(CNC3CC3)s2)cc1)C(=O)NO` [Compound 300], the MIC MH 10720 in [1] was at most 0.1 µg/mL. In experiment [2], the MIC PM 10775 was at most 0.1 µg/mL. The MIC MH 13065 in experiment [3] worked out at 0.4 µg/mL (≈ 0.874 µM). Further, the MIC PM 12080 in experiment [4] came to 0.4 µg/mL (≈ 0.874 µM). Further, the MIC MH 6357 in [5] was found to be 0.4 µg/mL (≈ 0.874 µM). In addition, the MIC MH 12587 in experiment [6] worked out at 0.8 µg/mL (≈ 1.75 µM). The compound also showed an MIC MH 13093 in [7] of 0.8 µg/mL (≈ 1.75 µM). The MIC MH 6374 in [8] was 0.8 µg/mL (≈ 1.75 µM). For the same compound, the MIC PM 6267 in [9] is 0.4 µg/mL (≈ 0.874 µM). This compound displayed an MIC PM 6391 in experiment [10] of at most 0.1 µg/mL.

`C=CCNCc1ccc(C#Cc2ccc(C(=O)N[C@H](C(=O)NO)C(C)(C)SC)cc2)s1` [Compound 301] returned an MIC MH 10720 in [1] of at most 0.1 µg/mL. Further, the MIC PM 10775 in [2] was at most 0.1 µg/mL. Also, in experiment [3], the MIC MH 13065 turned out to be 0.4 µg/mL (≈ 0.874 µM). The MIC PM 12080 in experiment [4] came to 0.4 µg/mL (≈ 0.874 µM). The compound also gave an MIC MH 6357 in [5] of 0.4 µg/mL (≈ 0.874 µM). The compound also had an MIC MH 12587 in experiment [6] of 0.8 µg/mL (≈ 1.75 µM). The compound further returned an MIC MH 13093 in experiment [7] of 0.8 µg/mL (≈ 1.75 µM). Moreover, the MIC MH 6374 in [8] is 0.8 µg/mL (≈ 1.75 µM). For the same compound, the MIC PM 6267 in experiment [9] was found to be 0.4 µg/mL (≈ 0.874 µM). The MIC PM 6391 in experiment [10] was 1.6 µg/mL (≈ 3.5 µM).

`COCCNCc1ccc(C#Cc2ccc(C(=O)N[C@H](C(=O)NO)C(C)(C)SC)cc2)s1` [Compound 302]: the MIC MH 10720 in [1] is at most 0.1 µg/mL. Also, the MIC PM 10775 in experiment [2] was at most 0.1 µg/mL. Further, in experiment [3], the MIC MH 13065 came to 0.8 µg/mL (≈ 1.68 µM). The compound further came in with an MIC PM 12080 in [4] of 0.4 µg/mL (≈ 0.841 µM). In [5], the MIC MH 6357 was 0.4 µg/mL (≈ 0.841 µM). This compound also displayed an MIC MH 12587 in experiment [6] of 1.6 µg/mL (≈ 3.36 µM). The compound further registered an MIC MH 13093 in experiment [7] of 0.8 µg/mL (≈ 1.68 µM). For the same compound, the MIC MH 6374 in [8] was determined as 0.8 µg/mL (≈ 1.68 µM). Besides, in experiment [9], the MIC PM 6267 came out at 0.8 µg/mL (≈ 1.68 µM). The same compound had an MIC PM 6391 in experiment [10] of 0.8 µg/mL (≈ 1.68 µM).

`CSC(C)(C)[C@H](NC(=O)c1ccc(C#Cc2ccc(CN3CCOCC3)s2)cc1)C(=O)NO` [Compound 303] displayed an MIC MH 10720 in [1] of 0.4 µg/mL (≈ 0.82 µM). In experiment [2], this compound registered an MIC PM 10775 of at most 0.1 µg/mL. The same compound returned an MIC MH 13065 in experiment [3] of 1.6 µg/mL (≈ 3.28 µM). The same compound had an MIC PM 12080 in experiment [4] of 0.4 µg/mL (≈ 0.82 µM). The compound further displayed an MIC MH 6357 in [5] of 0.2 µg/mL (≈ 0.41 µM). The same compound registered an MIC MH 12587 in [6] of 1.6 µg/mL (≈ 3.28 µM). Also, the MIC MH 13093 in experiment [7] came out at 1.6 µg/mL (≈ 3.28 µM). Also, the MIC MH 6374 in [8] turned out to be 1.6 µg/mL (≈ 3.28 µM). This compound also had an MIC PM 6267 in experiment [9] of 1.6 µg/mL (≈ 3.28 µM). In addition, the MIC PM 6391 in experiment [10] is 0.4 µg/mL (≈ 0.82 µM).

Compound `CSC(C)(C)C(NC(=O)c1ccc(C#Cc2ccc(CNCc3ccccc3)s2)cc1)C(=O)NO` (centres unmarked) [Compound 304] showed an MIC MH 10720 in experiment [1] of at most 0.1 µg/mL. This compound gave an MIC PM 10775 in experiment [2] of at most 0.1 µg/mL. The compound also returned an MIC MH 13065 in [3] of 1.6 µg/mL (≈ 3.15 µM). In experiment [4], this compound yielded an MIC PM 12080 of 0.4 µg/mL (≈ 0.788 µM). In addition, in experiment [5], the MIC MH 6357 was determined as 0.8 µg/mL (≈ 1.58 µM). The compound further gave an MIC MH 12587 in experiment [6] of 1.6 µg/mL (≈ 3.15 µM). This compound yielded an MIC MH 13093 in experiment [7] of 3.1 µg/mL (≈ 6.11 µM). The MIC MH 6374 in experiment [8] stood at 1.6 µg/mL (≈ 3.15 µM). Moreover, in experiment [9], the MIC PM 6267 turned out to be 1.6 µg/mL (≈ 3.15 µM). Moreover, the MIC PM 6391 in experiment [10] was found to be 1.6 µg/mL (≈ 3.15 µM).

In experiment [1], `COc1ccc(CNCc2ccc(C#Cc3ccc(C(=O)N[C@H](C(=O)NO)C(C)(C)SC)cc3)s2)cc1` [Compound 305] had an MIC MH 10720 of 0.2 µg/mL (≈ 0.372 µM). Also, the MIC PM 10775 in experiment [2] was at most 0.1 µg/mL. Besides, in experiment [3], the MIC MH 13065 came to 0.8 µg/mL (≈ 1.49 µM). The compound further showed an MIC PM 12080 in [4] of 0.4 µg/mL (≈ 0.744 µM). The compound further gave an MIC MH 6357 in [5] of 0.8 µg/mL (≈ 1.49 µM). This compound also yielded an MIC MH 12587 in experiment [6] of 3.1 µg/mL (≈ 5.77 µM). Also, in experiment [7], the MIC MH 13093 worked out at 1.6 µg/mL (≈ 2.98 µM). Also, in experiment [8], the MIC MH 6374 was 0.8 µg/mL (≈ 1.49 µM). For the same compound, the MIC PM 6267 in experiment [9] turned out to be 0.8 µg/mL (≈ 1.49 µM). For the same compound, the MIC PM 6391 in experiment [10] came out at 0.4 µg/mL (≈ 0.744 µM).
